Series [1] has as its target T1, CYP3A (Homo sapiens, UniProt P08684). The series is described as follows: in vitro. Particulars: microsomes, pH 7.4.
The target in series [2] is T1, CYP3A. The series is described as follows: in vitro.
For series [3] the following is noted: cited from earlier work.
Series [4] addresses T1, CYP3A. As to conditions: probe drugs midazolam and simvastatin, in vivo; ref University of Washington Drug Interaction Database; cited from earlier work.
The conditions of series [5]: blood-to-plasma ratio; Predicted within/obtained from Simcyp; ref Simcyp (Simcyp Limited, UK); cited from earlier work.
For series [6], the system named is human hepatocytes. The series is described as follows: Cytosolic drug accumulation ratio (Kpcyto) and cytosolic bioavailability (Fcyto) in human hepatocytes with chloroquine. The series is classed as in vitro ADME.
A short description of series [7]: Intracellular fraction of unbound drug (fu,cell), dialysis of human hepatocyte homogenate. As to conditions: homogenate of cryopreserved human hepatocytes, geometrical mean ± SD of triplicates. It counts as in vitro ADME.
Protocol: Cryopreserved human hepatocytes were thawed at 37 °C and transferred to phosphate-buffered saline (PBS). […] The fu,cell values were measured using two-chambered Rapid Equilibrium Dialysis (RED) devices. […] At the end of the incubation, 20 μl of each sample from the homogenate and buffer chambers was transferred to a 96-well plate. […] For the stability test, the cell homogenate and drug mixture (100 µl) was transferred to an empty well of the dialysis unit. […] After incubation, 10-fold and 100-fold dilutions of cell homogenate were prepared on 96-well plates and a mixture of acetonitrile/water (60:40) with internal standard (warfarin) was added to the samples before further sample handling and analysis, which was performed as described above. The fu,hom values were calculated as the ratio of the concentration of the drug in the HBSS chamber (Cbuffer) vs. the cell homogenate chamber (Chom). The protein concentration in the cell homogenate was measured using a BCA Protein Assay Reagent Kit (Pierce Biotechnology, Rockford, IL), according to the manufacturer’s instruction. The total cell volume in each well for 10 × 10^6 primary human hepatocytes was estimated from the protein concentration.
The subject of series [8] is human hepatocytes. The series is described as follows: Intracellular drug accumulation ratio (Kp) and intracellular bioavailability (Fic) in cryopreserved human hepatocytes. It counts as in vitro ADME. As to conditions: intracellular bioavailability = fu,cell × Kp; human hepatocytes.
Protocol: (§1) Intracellular drug binding (fu,cell, fraction of unbound drug inside cells) and intracellular drug accumulation (Kp) were measured in two separate experiments for all inhibitors[8], as described in the following sections. Intracellular drug bioavailability (Fic) expresses the ratio between the intracellular unbound drug concentration (Cu,cell) to the drug concentration in the medium (Cmedium).
(§2) Cryopreserved human hepatocytes were thawed as described above and suspended to 1 × 10^6 cell/ml in HBSS (viability 85%). […] The plates were incubated on an orbital shaker (300 rpm) at 37 °C for three time points (15, 30, 45 min), to ensure sufficient time to reach steady-state. At the end of the incubation, the plates were centrifuged for 5 min at 100 × g, and medium samples (20 µl) were collected from the supernatant (Cmedium). Drug uptake was terminated by addition of ice-cold PBS followed by a washing step. […] The total amount of drug in the cells (Acell) was calculated based on the determined drug concentrations.
(§3) The protein concentration in the cell samples was measured as described above and the cell volume (Vcell) calculated. Finally, the Kp was calculated for each drug as the ratio between the total drug concentration in the cell vs. the drug concentration in the medium (Cmedium):4 Kp=Acell/Vcell/Cmedium
Test in series [9]: as above
The series is classed as in vitro ADME. Particulars: human, cryopreserved human hepatocytes in suspension; cellular drug accumulation ratio; 0.5 µM drug; no chloroquine; geometrical mean ± SD of triplicates.
Protocol: as §1, §2, §3

Series [10] can be described thus: Non-specific binding of drugs in human liver microsomes (fu,mic), rapid equilibrium dialysis. It counts as in vitro ADME. Particulars: unbound drug fraction in the microsomal mixture, inhibitor 1 µM, 37 °C.
Protocol: The unbound fraction of the inhibitors in the microsomes (fu,mic) was determined using two-chambered Rapid Equilibrium Dialysis (RED) devices (Thermo Fisher Scientific Inc., Rockford, IL). Triplicate mixtures (200 µl) of 6–8 inhibitors at a final concentration of 1 µM and HLM (0.1 or 0.5 mg/ml) were added to one chamber, and Hank’s buffered salt solution (HBSS) (350 µl) to the other chamber. The dialysis units were incubated at 37 °C for 4 h on an orbital shaker. At the end of the incubation, 20 μl of each sample from the homogenate and buffer chambers was transferred to a 96-well plate. Blank buffer or blank microsomes (20 μl) were added to the samples from the homogenate or buffer chambers, respectively, to yield identical matrices before further sample handling and analysis. […] Here, drug-HLM mixture (100 µl) was transferred to an empty well of the dialysis unit and incubated for the same time. The remaining HLM solution (without drug) was kept as a blank sample. The mass balances calculated at the end of the experiment were consistently >80%.

Each structure is given as a SMILES string. Like-named read-outs stand apart in the source and are kept apart here.

T1 sequence (P08684 2-503): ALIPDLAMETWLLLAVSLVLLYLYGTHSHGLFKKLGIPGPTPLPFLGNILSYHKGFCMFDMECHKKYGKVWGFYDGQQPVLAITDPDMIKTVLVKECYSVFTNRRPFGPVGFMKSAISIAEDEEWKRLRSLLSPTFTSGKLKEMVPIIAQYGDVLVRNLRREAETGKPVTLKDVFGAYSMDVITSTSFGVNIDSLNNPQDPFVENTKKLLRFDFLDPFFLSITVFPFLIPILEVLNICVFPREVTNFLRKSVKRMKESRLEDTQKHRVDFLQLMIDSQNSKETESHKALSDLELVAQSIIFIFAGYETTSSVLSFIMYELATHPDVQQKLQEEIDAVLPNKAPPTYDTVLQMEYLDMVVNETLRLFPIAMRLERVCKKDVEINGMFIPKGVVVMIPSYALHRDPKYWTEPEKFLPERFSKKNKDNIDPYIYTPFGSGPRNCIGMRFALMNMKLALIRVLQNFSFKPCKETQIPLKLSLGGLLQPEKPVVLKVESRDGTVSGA

On to `CC[C@H]1OC(=O)[C@H](C)[C@@H](O[C@H]2C[C@@](C)(OC)[C@@H](O)[C@H](C)O2)[C@H](C)[C@@H](O[C@@H]2O[C@H](C)C[C@H](N(C)C)[C@H]2O)[C@](C)(O)C[C@@H](C)/C(=N\OCOCCOC)[C@H](C)[C@@H](O)[C@]1(C)O` [Roxithromycin], for which the IC50 at 5 min against CYP3A [1] was found to be 82.4 ± 44.9 µM. Also, affinity at CYP3A [1] was put at a Ki at 5 min of 26.2 µM. Besides, the KI (inactivation) was 31.4 ± 16.5 µM on CYP3A [2] (pH 7.4, KI, inactivation constant, HLM 0.5 mg/ml preincubation 0-30 min, midazolam 20 µM, mean ± SD of triplicates) and 19.2 µM at CYP3A [2] (pH 7.4, KI,u, calculated as fu,mic at 0.5 mg/ml × KI). Further, in series [3] (absorption rate constant, ref 5,17 (crizotinib), 19-21 (erythromycin), 22-25 (imatinib), 20,32,33 (roxithromycin), 4,34 (telithromycin), 35-40 (verapamil)), the ka was 4.96 h⁻¹. In addition, the “Cave,ss” value in series [3] (average plasma concentration at steady-state, 300 mg qd) is reported as 5,413 ng/ml. For the same compound, the Fa in [3] (fraction absorbed, ref 5,17 (crizotinib), 6,18 (diltiazem), 19-21 (erythromycin), 22-25 (imatinib), 26-28 (nefazodone), 29,30 (nilotinib), 29,31 (pazopanib), 20,32,33 (roxithromycin), 4,34 (telithromycin)) was 0.86. Moreover, in series [3] (maximum plasma concentration at steady-state, 300 mg qd), the “Cmax,ss” value is on record as 10,900 ng/ml. Further, the “class of CYP3A inhibitor by increase in AUC of the probe drug” value at CYP3A [4] is recorded as “weak (weak inhibitors causing a ≥1.25 but <2-fold increase)”. Moreover, in series [5], the B/P is on record as 0.70. For the same compound, the “Kp compared with Kpcyto” value in the series with human hepatocytes [6] (absence vs presence of chloroquine, p ≤ 0.05 in Student’s t-test where called significant) is given as “significantly larger”. For the same compound, the Kpcyto with human hepatocytes [6] (cellular drug accumulation ratio in the presence of chloroquine (100 µM, 45 min), 0.5 µM drug) worked out at 3.3 ± 0.75. Also, the Fcyto with human hepatocytes [6] (cytosolic bioavailability = fu,cell × Kpcyto, human hepatocytes) stood at 0.08 ± 0.02. Also, the Fic/Fcyto in the series on human hepatocytes [6] (ratio of intracellular to cytosolic bioavailability, human hepatocytes) came out at 1.61. The compound further displayed a fraction unbound at 4 h in series [7] of 0.0241 ± 0.0004. Further, in the series on human hepatocytes [8], the Fic turned out to be 0.13 ± 0.01. For the same compound, the Kp at 0.5 µM in [9] was found to be 5.4 ± 0.3. In addition, the fraction unbound at 4 h, 1 µM turned out to be 0.637 in series [10] (HLM 0.1 mg/ml, read-out: fu,mic at 0.1 mg/ml) and 0.612 in [10] (HLM 0.5 mg/ml, read-out: fu,mic at 0.5 mg/ml).

Values taken from PMC6458156, “Improved predictions of time-dependent drug-drug interactions by determination of cytosolic drug concentrations” (Scientific Reports, 2019).
